Numbers after ± are expanded uncertainties.
Assay: activity coefficient (dimensionless); of the first substance listed, at infinite dilution; xn = mol fraction of the nth substance listed
Details: Liquid, Chromatography, x1 = 0

Compound	activity coefficient (323.15 K)	activity coefficient (333.15 K)	activity coefficient (343.15 K)
CC(C)CO [2-methyl-1-propanol] + CCCOC[n+]1ccn(C)c1.F[B-](F)(F)F	4.35 ± 0.3	3.95 ± 0.27	3.56 ± 0.24
ClC(Cl)Cl [trichloromethane] + CCCOC[n+]1ccn(C)c1.N#C[N-]C#N	0.8 ± 0.05	0.85 ± 0.05	0.92 ± 0.06
C#CCCCC [1-hexyne] + CCCOC[n+]1ccn(Cc2ccccc2)c1.O=S(=O)([N-]S(=O)(=O)C(F)(F)F)C(F)(F)F	2.14 ± 0.15	2.35 ± 0.16	–
CCc1ccccc1 [ethylbenzene] + N#C[N-]C#N.N#C[N-]C#N.c1ccc(Cn2cc[n+](COCCCOC[n+]3ccn(Cc4ccccc4)c3)c2)cc1	8.33 ± 0.57	8.08 ± 0.55	7.78 ± 0.53
CC#N [acetonitrile] + CCCOC[n+]1ccn(C)c1.F[B-](F)(F)F	0.73 ± 0.05	0.74 ± 0.05	0.75 ± 0.05
CCCO [propan-1-ol] + CCCOC[n+]1ccn(C)c1.N#C[N-]C#N	0.97 ± 0.06	0.95 ± 0.06	0.92 ± 0.06
CC(C)CC(C)(C)C [2,2,4-trimethylpentane] + CN(C)c1cc[n+](COCCCOC[n+]2ccc(N(C)C)cc2)cc1.O=S(=O)([N-]S(=O)(=O)C(F)(F)F)C(F)(F)F.O=S(=O)([N-]S(=O)(=O)C(F)(F)F)C(F)(F)F	31.7 ± 2.2	25.2 ± 1.7	25.4 ± 1.7
CCC(=O)CC [pentan-3-one] + CCCCCCCCn1cc[n+](COCCC)c1C.N#C[N-]C#N	0.88 ± 0.06	0.89 ± 0.06	0.91 ± 0.06
CCCO [propan-1-ol] + N#C[N-]C#N.N#C[N-]C#N.c1ccc(Cn2cc[n+](COCCCOC[n+]3ccn(Cc4ccccc4)c3)c2)cc1	1.24 ± 0.08	1.2 ± 0.08	1.14 ± 0.07
CCO [ethanol] + CCCOC[n+]1ccn(Cc2ccccc2)c1.N#C[N-]C#N	0.73 ± 0.05	0.6 ± 0.04	0.59 ± 0.04
C1CCCCC1 [cyclohexane] + CCCOC[n+]1ccn(Cc2ccccc2)c1.O=S(=O)([N-]S(=O)(=O)C(F)(F)F)C(F)(F)F	4.98 ± 0.34	4.29 ± 0.29	3.99 ± 0.27
CCO [ethanol] + CCCCCCCCn1cc[n+](COCCC)c1C.O=S(=O)([N-]S(=O)(=O)C(F)(F)F)C(F)(F)F	1.12 ± 0.07	1.02 ± 0.06	0.94 ± 0.06
CCCCCCCCCCCC [dodecane] + N#C[N-]C#N.N#C[N-]C#N.c1ccc(Cn2cc[n+](COCCCOC[n+]3ccn(Cc4ccccc4)c3)c2)cc1	631 ± 43	634 ± 44	600 ± 41
CO [methanol] + CCCOC[n+]1ccn(Cc2ccccc2)c1.F[B-](F)(F)F	1.13 ± 0.07	1.04 ± 0.07	0.97 ± 0.06
ClCCl [dichloromethane] + CCCOC[n+]1ccn(C)c1.F[B-](F)(F)F	1.07 ± 0.07	1.16 ± 0.07	1.19 ± 0.08
C#CCCCCC [1-heptyne] + Cn1cc[n+](COCCCOC[n+]2ccn(C)c2)c1.O=S(=O)([N-]S(=O)(=O)C(F)(F)F)C(F)(F)F.O=S(=O)([N-]S(=O)(=O)C(F)(F)F)C(F)(F)F	5.9 ± 0.4	6.09 ± 0.42	5.71 ± 0.39
CCC[N+](=O)[O-] [1-nitropropane] + CCCOC[n+]1ccn(C)c1.O=S(=O)([N-]S(=O)(=O)C(F)(F)F)C(F)(F)F	0.74 ± 0.05	0.72 ± 0.05	0.72 ± 0.05
CC(C)O [propan-2-ol] + Cn1cc[n+](COCCCOC[n+]2ccn(C)c2)c1.N#C[N-]C#N.N#C[N-]C#N	1.39 ± 0.09	1.32 ± 0.09	1.26 ± 0.08
CCO [ethanol] + CN(C)c1cc[n+](COCCCOC[n+]2ccc(N(C)C)cc2)cc1.O=S(=O)([N-]S(=O)(=O)C(F)(F)F)C(F)(F)F.O=S(=O)([N-]S(=O)(=O)C(F)(F)F)C(F)(F)F	1.21 ± 0.08	1.11 ± 0.07	1.02 ± 0.06
c1ccncc1 [pyridine] + CCCCCCCCn1cc[n+](COCCC)c1C.N#C[N-]C#N	0.66 ± 0.05	0.59 ± 0.04	0.54 ± 0.04
CCC(C)=O [butanone] + CCCOC[n+]1ccc(N(C)C)cc1.O=S(=O)([N-]S(=O)(=O)C(F)(F)F)C(F)(F)F	0.51 ± 0.04	0.49 ± 0.04	0.45 ± 0.04
Cc1ccc(C)cc1 [1,4-dimethylbenzene] + CCCCCCCCn1cc[n+](COCCCOC[n+]2ccn(CCCCCCCC)c2C)c1C.N#C[N-]C#N.N#C[N-]C#N	1.34 ± 0.09	1.35 ± 0.09	1.36 ± 0.09

— the NIST ThermoML archive (doi:10.1016/j.fluid.2014.11.020)
